Article PMC5769417, “Single- and Multiple-Dose Trials to Determine the Pharmacokinetics, Safety, Tolerability, and Sex Effect of Oral Ginsenoside Compound K in Healthy Chinese Volunteers” (Frontiers in Pharmacology, 2018)

Tests used:
[1] = Single-dose trial, plasma pharmacokinetics; format: in vivo, human; details: single-dose trial, fasting
Procedure: Single-dose pharmacokinetics: The single-dose trial was performed first. […] Drinking before and after medication was prohibited for 2 h, but the amount and time of drinking were not strictly controlled at other times. All subjects had standard lunch and dinner (unified light diet) after medication 4 and 10 h. Single-dose pharmacokinetics: […] We preserved 8 ml specimens into 10 ml centrifuge tubes and stored at −70°C for PK assessment. All samples were preserved at −70°C and analyzed with a LC-MS/MS (API 4000 LC-MS/MS, ABI Company, Foster City, CA, USA) at the Institute of Clinical Pharmacology, Central South University (Changsha, China). […] An aqueous solution of a stable internal standard (IS for CK: digoxin, Shijiaoke Biological Technology Co. Ltd., Beijing, China; IS for PPD: coumarin, Sigma-Aldrich, St. Louis, USA) and 1 M phosphate buffer were added to 0.5 ml of thawed sample, and analytical standards and quality control (QC) samples were prepared in the same matrix. All samples were treated with 2 ml of methyl tert-butyl ether (MTBE, CNW technologies GmbH, Duesseldorf, Germany) to precipitate the bulk of plasma proteins. After mechanical shock by mixing for 10 min and a subsequent centrifugation (4,000 rpm, 4°C, 10 min), 1.4 ml of the supernatant was transferred and blow-dried with nitrogen in a water bath at 40°C. Lastly, the residue was dissolved in 100 μl of mobile phase and then was subjected to a mechanical shock by mixing, and centrifuged. The supernatant was subsequently injected into the column for analysis. […] Accuracy and precision of the assay were determined by evaluating the performance of the assay controls. Over the quantification range, the accuracy of the QC samples varied from 85 to 115% and the intra- and inter-assay imprecision was <15%. PK parameters were derived according to noncompartmental analysis and actual elapsed time from dosing by WinNonlin version 6.1 (Pharsight Corporation, Mountain View, CA, USA). […] The area under the curve (AUC) from time zero to the last time point (AUClast) and the AUC extrapolated to infinity (AUCinf) were calculated using the linear trapezoidal rule. The slope (elimination rate constant, K) of the terminal phase of the plasma concentration-time profile was determined, using a weighting factor of 1, by the method of least squares (log-linear regression of at least three data points). The t1/2 was estimated as (ln2)/K. […] The apparent volume of distribution (V/F) was equal to (CL/F)/K. The mean residence time (MRT) was calculated as the area under the first moments curve (AUMC) divided by AUC. The dose-normalized PK parameters e.g., Cmax/D and AUClast/D, were obtained by dividing each PK result by the administered dose. The cumulative excretion rate was calculated as the amount of unchanged drug in the urine over a time interval divided by the dose and was expressed as thousand points (‰).

[2] = Multiple-dose trial, plasma pharmacokinetics; format: in vivo, human
Procedure: Multiple-dose pharmacokinetics: […] Multiple-dose pharmacokinetics: […] All samples were preserved at −70°C and analyzed with a LC-MS/MS (API 4000 LC-MS/MS, ABI Company, Foster City, CA, USA) at the Institute of Clinical Pharmacology, Central South University (Changsha, China). […] An aqueous solution of a stable internal standard (IS for CK: digoxin, Shijiaoke Biological Technology Co. Ltd., Beijing, China; IS for PPD: coumarin, Sigma-Aldrich, St. Louis, USA) and 1 M phosphate buffer were added to 0.5 ml of thawed sample, and analytical standards and quality control (QC) samples were prepared in the same matrix. All samples were treated with 2 ml of methyl tert-butyl ether (MTBE, CNW technologies GmbH, Duesseldorf, Germany) to precipitate the bulk of plasma proteins. After mechanical shock by mixing for 10 min and a subsequent centrifugation (4,000 rpm, 4°C, 10 min), 1.4 ml of the supernatant was transferred and blow-dried with nitrogen in a water bath at 40°C. Lastly, the residue was dissolved in 100 μl of mobile phase and then was subjected to a mechanical shock by mixing, and centrifuged. The supernatant was subsequently injected into the column for analysis. […] Accuracy and precision of the assay were determined by evaluating the performance of the assay controls. Over the quantification range, the accuracy of the QC samples varied from 85 to 115% and the intra- and inter-assay imprecision was <15%. […] The area under the curve (AUC) from time zero to the last time point (AUClast) and the AUC extrapolated to infinity (AUCinf) were calculated using the linear trapezoidal rule. The slope (elimination rate constant, K) of the terminal phase of the plasma concentration-time profile was determined, using a weighting factor of 1, by the method of least squares (log-linear regression of at least three data points). The t1/2 was estimated as (ln2)/K. […] The apparent volume of distribution (V/F) was equal to (CL/F)/K. The mean residence time (MRT) was calculated as the area under the first moments curve (AUMC) divided by AUC. The dose-normalized PK parameters e.g., Cmax/D and AUClast/D, were obtained by dividing each PK result by the administered dose. The cumulative excretion rate was calculated as the amount of unchanged drug in the urine over a time interval divided by the dose and was expressed as thousand points (‰). On day 15 in the multiple-dose trial, the PK parameters, such as t1/2, CL/F, and V/F at steady state were calculated using the same method as that used for the single-dose trial. In addition, the Tmax at steady state (Tmax,ss), Cmax at steady state (Cmax,ss), and Cmin,ss were obtained from experimental observation after the steady state during the multiple-dose trial. […] The average steady-state drug concentration (Cavg) is calculated as AUCτ/τ, and the fluctuation ratio was calculated as (Cmax,ss − Cmin,ss)/Cavg. The accumulation index was calculated using dosing interval and elimination rate constant as in the following equation: 1/(1 − e^−Kτ).

[3] = 100 mg oral after breakfast, Day 1
[4] = 100 mg qd oral after breakfast, Day 15
[5] = 200 mg oral after breakfast, Day 1
[6] = 200 mg qd oral after breakfast, Day 15
[7] = 400 mg oral after breakfast, Day 1
[8] = 400 mg qd oral after breakfast, Day 15

SMILES: CC(C)=CCC[C@](C)(O)[C@H]1CC[C@]2(C)[C@@H]1[C@H](O)C[C@@H]1[C@@]3(C)CC[C@H](O)C(C)(C)[C@@H]3CC[C@]12C [20(S)-PPD, 20(S)-protopanaxadiol]
- AUClast ([1]; 25 mg oral): 32.4 ± 26.2 ng·h/mL
- Cmax ([1]; 25 mg oral): 1.6 ± 1.2 ng/mL
- Tmax, median (range) ([1]; 25 mg oral): 12.0 (8.0–24.0) h
- AUClast ([1]; 50 mg oral): 43.9 ± 12.0 ng·h/mL
- Cmax ([1]; 50 mg oral): 1.8 ± 0.6 ng/mL
- Tmax, median (range) ([1]; 50 mg oral): 24.0 (12.0–24.0) h
- AUClast ([1]; 100 mg oral): 167.6 ± 125.0 ng·h/mL
- Cmax ([1]; 100 mg oral): 6.3 ± 4.2 ng/mL
- Tmax, median (range) ([1]; 100 mg oral): 24.0 (12.0–36.0) h
- AUClast ([1]; 200 mg oral): 117.8 ± 94.9 ng·h/mL
- Cmax ([1]; 200 mg oral): 3.5 ± 2.7 ng/mL
- Tmax, median (range) ([1]; 200 mg oral): 24.0 (6.0–36.0) h
- AUClast ([1]; 400 mg oral): 157.1 ± 174.6 ng·h/mL
- Cmax ([1]; 400 mg oral): 4.8 ± 4.3 ng/mL
- Tmax, median (range) ([1]; 400 mg oral): 24.0 (5.0–48.0) h
- AUClast ([1]; 600 mg oral): 269.8 ± 251.4 ng·h/mL
- Cmax ([1]; 600 mg oral): 9.5 ± 9.8 ng/mL
- Tmax, median (range) ([1]; 600 mg oral): 36.0 (24.0–72.0) h
- AUClast ([1]; 800 mg oral): 179.1 ± 171.0 ng·h/mL
- Cmax ([1]; 800 mg oral): 5.1 ± 5.3 ng/mL
- Tmax, median (range) ([1]; 800 mg oral): 30.0 (3.0–72.0) h
- AUClast [2, 3]: 60.6 ± 44.9 ng·h/mL
- Cmax [2, 3]: 1.8 ± 1.1 ng/mL
- Tmax, median (range) [2, 3]: 24.0 (24.0–36.0) h
- AUClast [2, 4]: 154.5 ± 81.8 ng·h/mL
- Cmax [2, 4]: 5.0 ± 2.5 ng/mL
- Tmax, median (range) [2, 4]: 5.5 (0.3–24.0) h
- AUClast [2, 5]: 54.1 ± 58.8 ng·h/mL
- Cmax [2, 5]: 2.3 ± 3.4 ng/mL
- Tmax, median (range) [2, 5]: 7.0 (4.0-48.0) h
- AUClast [2, 6]: 170.9 ± 191.0 ng·h/mL
- Cmax [2, 6]: 5.7 ± 6.1 ng/mL
- Tmax, median (range) [2, 6]: 6.0 (0.3–24.0) h
- AUClast [2, 7]: 133.1 ± 127.6 ng·h/mL
- Cmax [2, 7]: 4.3 ± 3.6 ng/mL
- Tmax, median (range) [2, 7]: 16.0 (3.0–36.0) h
- AUClast [2, 8]: 463.1 ± 512.3 ng·h/mL
- Cmax [2, 8]: 11.0 ± 10.2 ng/mL
- Tmax, median (range) [2, 8]: 5.5 (0.5–8.0) h
- concentration of metabolite relative to the parent drug ([2]; Day 1, 100–400 mg CK): 0.08–0.16%
